Measurements taken from patent publication US7192607B2, “Formulations for the prevention or the treatment of diseases affecting mucosae or skin, or for pregnancy prevention, and an applicator for the delivery of topical formulations into mucosal cavities” (Infectio Recherche Inc, priority 2002, dated 2007).

Experiments:
[1] = Concentration of acyclovir in plasma after topical application; format: in vivo; details: drug incorporated within the poloxamer matrix; infected vs uninfected mice; 24 h
[2] = In vivo skin penetration of antivirals (distribution in skin tissues); set-up: species or system mice
[3] = test system: HSV-1 (strain F); assay: In vitro susceptibility of HSV-1 to combination of foscarnet and SLS in Vero cells (PFU); format: cell-based, Herpes simplex virus type-1; details: combinations of different concentrations in overlay, 2 days, FIG. 22
Procedure: The effect of SLS on the efficacy of foscamet against HSV-1 (strain F) was investigated in Vero cells. In brief, cells were seeded in 24 well-plates (Costar, Montreal, QC, Canada) and were incubated with HSV-1 strain F (approximately 100 PFU/ml) for 2 h at 37° C. to allow virus adsorption. Afterwards, virus was removed and cells overlaid with 0.5 ml of 0.6% agarose Seaplaque (Marine Colloids, Rockland, Mass.) containing different concentrations of foscarnet, SLS or combination of both compounds. The plates were incubated for 2 days at 37° C. Cells were then fixed with 10% formaldehyde in PBS for 20 min, washed with deionized water and stained with 0.05% methylene blue. Virus susceptibility was evaluated via the determination of PFU.

[4] = test system: HSV-1 (strain F); assay: Treatment of HSV-1 cutaneous lesions in mice with topical formulations; format: in vivo, hairless mice (SKH1); details: treatment started 24 h after infection, 3 times daily for 4 days
Procedure: For the purpose of testing the efficacy of our gel formulations in a murine model of cutaneous HSV-1 infection, the solutions were prepared within a phosphate buffer (0.2 M, pH 6) to be compatible with the pH of the skin.
The efficacy of our different topical formulations has been evaluated in a murine model of cutaneous HSV-1 infection. In brief, female hairless mice (SKH1; Charles River Breeding Laboratories Inc., St-Constant, QC, Canada), 5–7 weeks old were anesthetized by intraperitoneal injection of a mixture containing 70 mg/kg ketamine hydrochloride and 11.5 mg/kg xylazine. The virus was inoculated on the lateral side of the body in the left lumbar skin area. The skin was scratched six times with a 27 gauge needle held vertically in a crossed-hatched pattern. Fifty μl of viral suspension (HSV-1 strain F, 1.5×10^6 plaque forming units (PFU)/ml) was rubbed for 10 to 15 sec on the scarified skin area with a cotton tipped applicator saturated with culture medium [minimum essential medium (MEM) supplemented with 100 U/ml of penicillin-streptomycin, 2 mM L-glutamine and 2% fetal bovine serum (MEM-E +2% FBS)]. The scarified area was protected with a corn cushion which was maintained on the mice body with surgical tape. […]
Different treatment regimens were evaluated in this study. […] The efficacy of the different formulations was evaluated using lesion scores and survival.

[5] = test system: HSV-1 (strain F); assay: Murine cutaneous infection model, HSV-1 pretreated with SLS or DS; format: in vivo, hairless mice (SKH1)
Procedure: The effect of pretreating HSV-1 (strain F) with SLS on viral infectivity has also been evaluated in a murine cutaneous infection model. Female hairless mice (SKH1; Charles River Breeding Laboratories Inc., St-Constant, QC, Canada), 5–6 weeks old were used throughout this study. […] Mice were anesthetized by intraperitoneal injection of a mixture containing 70 mg/kg ketamine hydrochloride (Rogarsetic* injection USP; Rogar/STB Inc. Montreal, QC, Canada) and 11.5 mg/kg xylazine (Rompun®; Miles Canada Inc., Etobicoke, ON, Canada). The virus was inoculated on the lateral side of the body in the left lumbar skin area. The skin was scratched six times in a crossed-hatched pattern with a 27-gauge needle held vertically. Viral suspension (50 μl) was deposited onto the scarified area and rubbed for 10 to 15 see with a cotton tipped applicator saturated with EMEM+2% FBS or SLS or DS solutions. The scarified area was protected with a corn cushion which was maintained on the mice body with surgical tape. The porous inner wall of the aperture of the corn cushion was impermeabilized with tissue adhesive prior to use to prevent absorption of the drug. The aperture of the corn cushion was also closed with surgical tape. Mice were then returned to their cages and observed twice daily.
In infected untreated mice, no pathological signs of cutaneous infection were visible during the first four days following infection and only the scarified area remained appearent. On day 5, herpetic skin lesions began to appear in some mice in the form of small vesicles distant from the inoculation site. On day 6, almost all untreated mice developed herpetic skin lesions in the form of a 4–5 mm wide band extending from the spine to the ventral midline of the infected dermatome similar to zoster-like infections. Maximal mean lesion score was observed on day 8. Mean lesion score decreased thereafter from day 11 to day 15 because of spontaneous regression of cutaneous lesions in some mice. […] Of prime importance, all mice infected with the virus pretreated with 100 μM SLS survived the infection (data not shown).

[6] = test system: Vero cells; assay: Viability of Vero cells exposed to SLS or DS (MTS test); details: Vero cells exposed 1 h at 37° C. to concentrations as in FIG. 1 and Table 1; data not shown
[7] = test system: HSV-1 (strain F); assay: Efficacy of SLS or DS added in overlay after infection against HSV-1 (strain F) in Vero cells (PFU); format: cell-based, Herpes simplex virus type-1; details: cells infected 2 h, compound in overlay for 2 days, FIG. 2
Procedure: In brief, cells were infected with the virus for 2 h at 37° C. Afterwards, supernatant was removed and cells were overlaid with 0.5 ml of EMEM +2% FBS containing 0.6% agarose Seaplaque and SLS or DS at the desired concentration. Plates were then incubated for 2 days at 37° C. in a 5% CO2 atmosphere. Cells were fixed with 10% formaldehyde in PBS for 20 min, washed with deionized water and stained with 0.05% methylene blue. Viral infectivity was evaluated following the determination of PFU.

[8] = test system: HSV-1 (strain F); assay: Infectivity of HSV-1 (strain F) to Vero cells after treatment with SLS or DS (plaque forming units); format: cell-based, Herpes simplex virus type-1; details: independent of whether the virus was pretreated, FIG. 1, read-out: concentration giving a loss of 50% of the viral infectivity
Procedure: The effect of pretreating different strains of herpes viruses with SLS or DS on their viral infectivities to susceptible cells has been evaluated. In brief, cells were seeded in 24 well-plates (Costar, Montreal, QC, Canada). Prior to infection, the virus was either suspended in culture medium or phosphate buffered saline (PBS), or incubated with different concentrations of SLS in PBS for 1 h at 37° C. At confluency, cells were incubated with viral suspensions by centrifuging the plates (750× g for 45 min at 20° C.) to allow virus adsorption. Virus was removed and cell sheets were then overlaid with 0.5 ml of 0.6% agarose Seaplaque (Marine Colloids, Rockland, Md.) prepared in appropriate culture medium. The plates were incubated for 2 days at 37° C. Cells were then fixed with 10% formaldehyde in PBS for 20 min, washed with deionized water and stained with 0.05% methylene blue. Viral infectivity was evaluated via the determination of Plaque Forming Units (PFU).
HSV-1 (strain F) infectivity was reduced to 21% when viral particles were pretreated with 25 μM SLS. The infectivities of all HSV-2 strains were between 50 to 70% following preincubation with 25 μM SLS. A complete loss of the infectivity of all strains tested were obtained following pretreatment of the viruses with 50 μM SLS.
When SLS was immediately added to Vero cells following their infection, the loss of viral infectivity was less dramatic compared to that obtained for virus pretreated for 1 h at 37° C. with the same SLS concentrations. […] Similarly, pretreatment of the HSV-2 (strain 333) with SLS also influenced the infectivity of this strain (data not shown). On the other hand, DS reduces the infectivity of the virus independent of whether the virus was pretreated with DS.

Nc1nc2c(ncn2COCCO)c(=O)[nH]1 [acyclovir]
increase of concentration in plasma by infection [1]: 4 fold
effect of infection on amount in the epidermis ([2]; infected vs uninfected mice, 24 h): did not significantly increase
concentration in the epidermis and dermis compared with that of foscarnet ([2]; uninfected and infected mice, irrespective of the carrier, 24 h): higher

O=C(O)P(=O)(O)O [foscarnet]
efficacy of foscarnet against HSV-1 (strain F) in the presence of SLS [3]: enhanced
mice that survived the infection ([4]; 0.5% foscarnet in solution): Half
mean lesion score ([4]; solution of 0.5% foscarnet): large reduction
concentration in the epidermis and dermis ([2]; infected mice, drug incorporated within the poloxamer vs phosphate buffer, 24 h): significantly higher
amounts found in the underlying epidermis and dermis ([2]; uninfected mice, irrespective of the carrier, 24 h after topical application): No or negligible amounts

dextran sulfate [DS]
mean lesion score ([5]; virus pretreated with 0.25 nM DS): partial reduction
protection against the development of herpetic lesions ([5]; virus pretreated with either 1 or 10 nM DS): better protection
cytotoxicity (viability, MTS test) [6]: No signs of cytotoxicity
concentration with complete efficacy against viral replication [7]: 20 µM
IC50 [8]: ~1 nM
